Data taken from article PMC6027051, “Polymer–Surfactant System Based Amorphous Solid Dispersion: Precipitation Inhibition and Bioavailability Enhancement of Itraconazole” (Pharmaceutics, 2018).
≈ marks a conversion by molar mass, not a printed value. Like-named read-outs stand apart in the source and are kept apart here.

Key:
Format in all cases: physicochemical
[1] = Equilibrium solubility of ITZ in SIF with or without surfactant (shaking flask method); settings: for solubility thermodynamic at 48 h: 37 °C, n = 3, read-out: ITZ Concentration in SIF (equilibrium solubility)
Method: An excess amount of ITZ was added to SIF with or without pre-dissolved surfactant (1 mg/mL) and mixed by vortex for 2 min. After incubation in a shaking incubator at 37 °C for 48 h, the suspension was centrifuged (15,000 rpm for 10 min) and filtered through a 0.22 μm Millipore filter (Jinteng Experimental Equipment Co., Ltd, Tianjin, China). Prior to assay by high performance liquid (HPLC) (Shimadzu Corporation, Kyoto, Japan) using a PhenomenexC18 column (4.6 × 250 mm, 5 μm), the filtrate was diluted 1:1 with mobile phase. The mobile phase was consisted of 0.5% diisopropylamine in methanol and 0.1% ammonium acetate in distilled water (80:20) with a rate of 1.0 mL/min. The effluent was monitored at an ultraviolet-visible (UV) absorption wavelength of 263 nm. The retention time of ITZ under these conditions was 4.9 min. Calibration curve (Figure 1A) were linear over a concentration range of 0.04–40 μg/mL. The limit of quantitation (LOQ) and limit of detection (LOD) was 25 ng and 10 ng, respectively. Each equilibrium solubility test was performed in triplicate.

[2] = Nucleation induction time measurement (turbidity at 490 nm, plate reader) in SIF; settings: supersaturated ITZ solution by solvent shift (DMSO stock into SIF), absorbance 490 nm
Method: Supersaturation stability is commonly evaluated by measuring the induction time for nucleation, which is defined as the time lag for the appearance of the observable crystals. In this study, the precipitation induction time of different formulations were obtained by determining the changes in turbidity using plate reader detection technique. Supersaturated ITZ solutions were prepared by the solvent shift method. All the samples were dissolved in dimethyl sulfoxide (DMSO) to obtain ITZ stock solution at a concentration of 1mg/mL, then the stock solution was added into SIF and stirred constantly to generate a supersaturated solution. Immediately, 300 μL of individual supersaturated solution was transferred into a 96-well polypropylene plate and the optical density value of each well was measured at 490 nm using plate reader (Bio-Tek, Winooski, VT, USA). […] Thus, the turbidity was the only contributor to the changed absorbance. The samples were also shaken before the measurement and each formulation was detected in triplicate. All the analyses and calculations were carried out using Gen 5.0 (Bio-Tek, Winooski, VT, USA).

[3] = Supersaturation dissolution test with pH-shift (SGF to SIF, USP paddle method)
Method: In order to simulate the drug peristalsis in vivo situation, a transfer of simulated gastric fluid (SGF) to SIF was conducted for in vitro dissolution experiment. Supersaturation dissolution tests were performed according to USP 29 Apparatus 2 guidelines (paddle method) with a ZRS-8G dissolution tester (TDTF, Tianjin, China). Briefly, samples containing equivalent amounts of ITZ (45 mg) were subjected to each dissolution vessel containing SGF (750 mL of 0.1 N HCl) for 2 h, followed by pH adjustment to 6.8 by the addition of 250 mL of 0.2 M tribasic sodium phosphate (Na3PO4) for additional 3 h. The dissolution media was kept at 37.0 ± 0.5 °C and the paddle speed was maintained at 100 rpm throughout the test procedure. Aliquot samples (5 mL) were withdrawn at predetermined time intervals (120, 125, 150, 180, 240, and 300 min). The samples were filtered through a […] millipore filter and the first few drops were discarded. The filtrate was immediately diluted with methanol to prevent the precipitation. The ITZ concentration was assayed by ultraviolet spectrophotometry (TU-1901, Beijing Purkinje General Instrument Co., Ltd., Beijing, China) at a wavelength of 263 nm. The calibration curve of ITZ in UV spectrophotometry was shown in Figure 1B with a concentration range of 0.25–80 μg/mL. […]

solubility thermodynamic at 48 h ([1]; SIF with Poloxamer 188 1 mg/mL, pH 6.8, SIF pH 6.8 with Poloxamer 188 1 mg/mL): 0.92 ± 0.27 µg/mL (≈ 1.3 µM) | solubility thermodynamic at 48 h ([1]; SIF with SDS 1 mg/mL, pH 6.8, SIF pH 6.8 with SDS 1 mg/mL): 1.66 ± 0.53 µg/mL (≈ 2.35 µM) | solubility thermodynamic at 48 h ([1]; SIF with Soluplus 1 mg/mL, pH 6.8, SIF pH 6.8 with Soluplus 1 mg/mL): 0.1 ± 0.06 µg/mL (≈ 0.142 µM) | solubility thermodynamic at 48 h ([1]; SIF with TPGS 1 mg/mL, pH 6.8, SIF pH 6.8 with TPGS 1 mg/mL): 4.83 ± 0.81 µg/mL (≈ 6.84 µM) | Increase of equilibrium solubility in the presence of TPGS over SIF ([1]; SIF with TPGS vs SIF alone): approximately 580 fold | solubility thermodynamic at 48 h ([1]; SIF with Tween 80 1 mg/mL, pH 6.8, aqueous with cosolvent or surfactant or cyclodextrin, thermodynamic from solid, SIF pH 6.8 with Tween 80 1 mg/mL): 0.03 ± 0.01 µg/mL (≈ 0.0425 µM) | solubility thermodynamic at 48 h ([1]; SIF with sodium cholate 1 mg/mL, pH 6.8, aqueous with cosolvent or surfactant or cyclodextrin, thermodynamic from solid, SIF pH 6.8 with Sodium cholate 1 mg/mL): 0.07 ± 0.02 µg/mL (≈ 0.0992 µM) | solubility thermodynamic at 48 h ([1]; simulated intestinal fluid (SIF) without surfactant, pH 6.8, fassgf or other biorelevant, thermodynamic from solid, SIF pH 6.8 without surfactant (Blank group)): ~0.008 µg/mL (≈ 0.0113 µM) | ITZ released after 2 h in SGF ([3]; SGF (0.1 N HCl), 120 min, 37 °C, 45 mg ITZ): 3% | Cumulative release amount after pH change to 6.8 (rapid precipitation, eventually dropped to) ([3]; SIF pH 6.8, precipitation from five minutes after the pH change): < 1%
SMILES: CCC(C)n1ncn(-c2ccc(N3CCN(c4ccc(OCC5COC(Cn6cncn6)(c6ccc(Cl)cc6Cl)O5)cc4)CC3)cc2)c1=O (centres unmarked) [ITZ, Itraconazole]
Turbidity / precipitation behaviour in the absorbance-time curve [2]: rapid increase in the absorbance followed by a gradual decline
